Data taken from US20260297083A1, “SUBSTITUTED ACETYLENE COMPOUND DERIVATIVES AND THEIR PHARMACEUTICAL USE” (AVELOS THERAPEUTICS INC., priority 2023, published 2026).

These compounds were tested on DLD-1 BRCA2(−/−) Cell (assay: Cell viability assay (Resazurin) in DLD1-BRCA2 cells). Conditions: Homo sapiens, DLD-1, 336 h, 14 days, 1,500 cells/well, final DMSO 1%.
Format: cell-based
Procedure, shortened: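 DLD1-BRCA2 KG cells seeded at 1,500/well (parental 600/well) in RPMI-1640 with 10% FBS, compound added after 4 h (1% DMSO), media replaced every 3-4 days over 14 days at 37° C. Viability read by resazurin (0.1 mg/ml, 4 h) fluorescence at Ex/Em 560/590 nm; IC50 fitted.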

Question: Which IC50 does the source give for `Cc1cc(C(F)(F)F)cc(N2[C@H](C(=O)N(CC#Cc3ncc(C(=O)N4C5CCC4COC5)cn3)c3ccc(F)c(C)c3)CCS2(=O)=O)n1` [Example 83, (3S)-N-(3-(5-(3-oxa-8-azabicyclo[3.2.1]octane-8-carbonyl)pyrimidin-2-yl)prop-2-yn-1-yl)-N-(4-fluoro-3-methylphenyl)-2-(6-methyl-4-(trifluoromethyl)pyridin-2-yl)isothiazolidine-3-carboxamide 1,1-dioxide] here?
Answer: < 1000 nM

Question: Which IC50 does the source give for `Cc1cc(C(F)(F)F)cc(N2[C@H](C(=O)N(CC#Cc3ccc(N4CCOCC4)cn3)c3ccc(F)c(C)c3)CCS2(=O)=O)n1` [Example 84, (S)-N-(4-fluoro-3-methylphenyl)-2-(6-methyl-4-(trifluoromethyl)pyridin-2-yl)-N-(3-(5-morpholinopyridin-2-yl)prop-2-yn-1-yl)isothiazolidine-3-carboxamide 1,1-dioxide] here?
Answer: < 1000 nM

Question: With `Cc1cc(C(F)(F)F)cc(N2[C@H](C(=O)N(CC#Cc3ccc(N4CCOCC4)nc3)c3ccc(F)c(C)c3)CCS2(=O)=O)n1` [Example 85, (S)-N-(4-fluoro-3-methylphenyl)-2-(6-methyl-4-(trifluoromethyl)pyridin-2-yl)-N-(3-(6-morpholinopyridin-3-yl)prop-2-yn-1-yl)isothiazolidine-3-carboxamide 1,1-dioxide] as the compound, how does the IC50 read?
Answer: < 1000 nM

Question: With `Cc1cc(C(F)(F)F)cc(N2[C@H](C(=O)N(CC#Cc3cccc(N4CCOCC4)n3)c3ccc(F)c(C)c3)CCS2(=O)=O)n1` [Example 86, (S)-N-(4-fluoro-3-methylphenyl)-2-(6-methyl-4-(trifluoromethyl)pyridin-2-yl)-N-(3-(6-morpholinopyridin-2-yl)prop-2-yn-1-yl)isothiazolidine-3-carboxamide 1,1-dioxide] as the compound, how does the IC50 read?
Answer: < 1000 nM

Question: For `Cc1cc(C(F)(F)F)cc(N2[C@H](C(=O)N(CC#Cc3cccc(=O)[nH]3)c3ccc(F)c(C)c3)CCS2(=O)=O)n1` [Example 87, (S)-N-(4-fluoro-3-methylphenyl)-2-(6-methyl-4-(trifluoromethyl)pyridin-2-yl)-N-(3-(6-oxo-1,6-dihydropyridin-2-yl)prop-2-yn-1-yl)isothiazolidine-3-carboxamide 1,1-dioxide], which IC50 is on record?
Answer: < 1000 nM

Question: With `Cc1cc(C(F)(F)F)cc(N2[C@H](C(=O)N(CC#Cc3cccc(OC(C)C)n3)c3ccc(F)c(C)c3)CCS2(=O)=O)n1` [Example 88, (S)-N-(4-fluoro-3-methylphenyl)-N-(3-(6-isopropoxypyridin-2-yl)prop-2-yn-1-yl)-2-(6-methyl-4-(trifluoromethyl)pyridin-2-yl)isothiazolidine-3-carboxamide 1,1-dioxide] as the compound, how does the IC50 read?
Answer: 1100 to 5000 nM

Question: How did the IC50 turn out when `Cc1cc(C(F)(F)F)cc(N2[C@H](C(=O)N(CC#Cc3cccc(OC(F)F)n3)c3ccc(F)c(C)c3)CCS2(=O)=O)n1` [Example 89, (S)-N-(3-(6-(difluoromethoxy)pyridin-2-yl)prop-2-yn-1-yl)-N-(4-fluoro-3-methylphenyl)-2-(6-methyl-4-(trifluoromethyl)pyridin-2-yl)isothiazolidine-3-carboxamide 1,1-dioxide] was run?
Answer: 1100 to 5000 nM

Question: Which IC50 does the source give for `Cc1cc(C(F)(F)F)cc(N2[C@H](C(=O)N(CC#Cc3cc(C)c(F)c(C)n3)c3ccc(F)c(C)c3)CCS2(=O)=O)n1` [Example 90, (S)-N-(4-fluoro-3-methylphenyl)-N-(3-(5-fluoro-4,6-dimethylpyridin-2-yl)prop-2-yn-1-yl)-2-(6-methyl-4-(trifluoromethyl)pyridin-2-yl)isothiazolidine-3-carboxamide 1,1-dioxide] here?
Answer: 1100 to 5000 nM

Question: `Cc1cc(C(F)(F)F)cc(N2[C@H](C(=O)N(CC#Cc3cc(C)c(N)c(C)n3)c3ccc(F)c(C)c3)CCS2(=O)=O)n1` [Example 91, (S)-N-(3-(5-amino-4,6-dimethylpyridin-2-yl)prop-2-yn-1-yl)-N-(4-fluoro-3-methylphenyl)-2-(6-methyl-4-(trifluoromethyl)pyridin-2-yl)isothiazolidine-3-carboxamide 1,1-dioxide] was tested. Which IC50 did it give?
Answer: 1100 to 5000 nM

Question: With `Cc1cc(C(F)(F)F)cc(N2[C@H](C(=O)N(CC#Cc3cccc(=O)n3C)c3ccc(F)c(C)c3)CCS2(=O)=O)n1` [Example 92, (S)-N-(4-fluoro-3-methylphenyl)-2-(6-methyl-4-(trifluoromethyl)pyridin-2-yl)-N-(3-(1-methyl-6-oxo-1,6-dihydropyridin-2-yl)prop-2-yn-1-yl)isothiazolidine-3-carboxamide 1,1-dioxide] as the compound, how does the IC50 read?
Answer: < 1000 nM

Question: Which IC50 does the source give for `Cc1cc(C(F)(F)F)cc(N2[C@H](C(=O)N(CC#Cc3ccc(F)cn3)c3ccc(F)c(C)c3)CCS2(=O)=O)n1` [Example 93, (S)-N-(4-fluoro-3-methylphenyl)-N-(3-(5-fluoropyridin-2-yl)prop-2-yn-1-yl)-2-(6-methyl-4-(trifluoromethyl)pyridin-2-yl)isothiazolidine-3-carboxamide 1,1-dioxide] here?
Answer: < 1000 nM

Question: With `Cc1cc(C(F)(F)F)cc(N2[C@H](C(=O)N(CC#Cc3ccc(F)c(C(C)C)n3)c3ccc(F)c(C)c3)CCS2(=O)=O)n1` [Example 94, (S)-N-(4-fluoro-3-methylphenyl)-N-(3-(5-fluoro-6-isopropylpyridin-2-yl)prop-2-yn-1-yl)-2-(6-methyl-4-(trifluoromethyl)pyridin-2-yl)isothiazolidine-3-carboxamide 1,1-dioxide] as the compound, how does the IC50 read?
Answer: 1100 to 5000 nM

Question: Which IC50 does the source give for `Cc1cc(C(F)(F)F)cc(N2[C@H](C(=O)N(CC#Cc3ccc(C(N)=O)nc3)c3ccc(F)c(C)c3)CCS2(=O)=O)n1` [Example 95, (S)-N-(3-(6-carbamoylpyridin-3-yl)prop-2-yn-1-yl)-N-(4-fluoro-3-methylphenyl)-2-(6-methyl-4-(trifluoromethyl)pyridin-2-yl)isothiazolidine-3-carboxamide 1,1-dioxide] here?
Answer: < 1000 nM

Question: Which IC50 does the source give for `Cc1cc(C(F)(F)F)cc(N2[C@H](C(=O)N(CC#Cc3cnc(C(N)=O)c(F)c3)c3ccc(F)c(C)c3)CCS2(=O)=O)n1` [Example 96, (S)-N-(3-(6-carbamoyl-5-fluoropyridin-3-yl)prop-2-yn-1-yl)-N-(4-fluoro-3-methylphenyl)-2-(6-methyl-4-(trifluoromethyl)pyridin-2-yl)isothiazolidine-3-carboxamide 1,1-dioxide] here?
Answer: < 1000 nM

Question: For `Cc1cc(C(F)(F)F)cc(N2[C@H](C(=O)N(CC#Cc3ccc(C(N)=O)cn3)c3ccc(F)c(C)c3)CCS2(=O)=O)n1` [Example 97, (S)-N-(3-(5-carbamoylpyridin-2-yl)prop-2-yn-1-yl)-N-(4-fluoro-3-methylphenyl)-2-(6-methyl-4-(trifluoromethyl)pyridin-2-yl)isothiazolidine-3-carboxamide 1,1-dioxide], which IC50 is on record?
Answer: < 1000 nM

Question: Which IC50 does the source give for `Cc1cc(C(F)(F)F)cc(N2[C@H](C(=O)N(CC#Cc3cnc4c(c3)CN(C)C4=O)c3ccc(F)c(C)c3)CCS2(=O)=O)n1` [Example 98, (S)-N-(4-fluoro-3-methylphenyl)-2-(6-methyl-4-(trifluoromethyl)pyridin-2-yl)-N-(3-(6-methyl-7-oxo-6,7-dihydro-5H-pyrrolo[3,4-b]pyridin-3-yl)prop-2-yn-1-yl)isothiazolidine-3-carboxamide 1,1-dioxide] here?
Answer: < 1000 nM

Question: For `Cc1cc(C(F)(F)F)cc(N2[C@H](C(=O)N(CC#Cc3cnc4c(c3)C(C)(C)N(C)C4=O)c3ccc(F)c(C)c3)CCS2(=O)=O)n1` [Example 99, (S)-N-(4-fluoro-3-methylphenyl)-2-(6-methyl-4-(trifluoromethyl)pyridin-2-yl)-N-(3-(5,5,6-trimethyl-7-oxo-6.7-dihydro-5H-pyrrolo[3,4-b]pyridin-3-yl)prop-2-yn-1-yl)isothiazolidine-3-carboxamide 1,1-dioxide], which IC50 is on record?
Answer: 1100 to 5000 nM

Question: Which IC50 does the source give for `Cc1cc(C(F)(F)F)cc(N2[C@H](C(=O)N(CC#Cc3cnc4c(c3)C(=O)N(C)C4=O)c3ccc(F)c(C)c3)CCS2(=O)=O)n1` [Example 100, (S)-N-(4-fluoro-3-methylphenyl)-2-(6-methyl-4-(trifluoromethyl)pyridin-2-yl)-N-(3-(6-methyl-5,7-dioxo-6,7-dihydro-5H-pyrrolo[3,4-b]pyridin-3-yl)prop-2-yn-1-yl)isothiazolidine-3-carboxamide 1,1-dioxide] here?
Answer: > 5100 nM

Question: `Cc1cc(C(F)(F)F)cc(N2[C@H](C(=O)N(CC#Cc3n[nH]c(=O)c4ccccc34)c3ccc(F)c(C)c3)CCS2(=O)=O)n1` [Example 101, (S)-N-(4-fluoro-3-methylphenyl)-2-(6-methyl-4-(trifluoromethyl)pyridin-2-yl)-N-(3-(4-oxo-3,4-dihydrophthalazin-1-yl)prop-2-yn-1-yl)isothiazolidine-3-carboxamide 1,1-dioxide] was tested. Which IC50 did it give?
Answer: 1100 to 5000 nM

Question: With `Cc1cc(C(F)(F)F)cc(N2[C@H](C(=O)N(CC#Cc3cncn3C)c3ccc(F)c(C)c3)CCS2(=O)=O)n1` [Example 102, (S)-N-(4-fluoro-3-methylphenyl)-N-(3-(1-methyl-1H-imidazol-5-yl)prop-2-yn-1-yl)-2-(6-methyl-4-(trifluoromethyl)pyridin-2-yl)isothiazolidine-3-carboxamide 1,1-dioxide] as the compound, how does the IC50 read?
Answer: 1100 to 5000 nM

Question: Which IC50 does the source give for `Cc1cc(C(F)(F)F)cc(N2[C@H](C(=O)N(CC#Cc3ncnc(N4CCOCC4)n3)c3ccc(F)c(C)c3)CCS2(=O)=O)n1` [Example 103, (S)-N-(4-fluoro-3-methylphenyl)-2-(6-methyl-4-(trifluoromethyl)pyridin-2-yl)-N-(3-(4-morpholino-1,3,5-triazin-2-yl)prop-2-yn-1-yl)isothiazolidine-3-carboxamide 1,1-dioxide] here?
Answer: < 1000 nM

Question: Which IC50 does the source give for `Cc1cc(C(F)(F)F)cc(N2[C@H](C(=O)N(CC#Cc3nc(C(N)=O)co3)c3ccc(F)c(C)c3)CCS2(=O)=O)n1` [Example 104, (S)-2-(3-(N-(4-fluoro-3-methylphenyl)-2-(6-methyl-4-(trifluoromethyl)pyridin-2-yl)-1,1-dioxidoisothiazolidine-3-carboxamido)prop-1-yn-1-yl)oxazole-4-carboxamide] here?
Answer: < 1000 nM

Question: `Cc1cc(C(F)(F)F)cc(N2[C@H](C(=O)N(CC#Cc3ccc(C(N)=O)cc3)c3ccc(F)c(C)c3)CCS2(=O)=O)n1` [Example 105, (S)-N-(3-(4-carbamoylphenyl)prop-2-yn-1-yl)-N-(4-fluoro-3-methylphenyl)-2-(6-methyl-4-(trifluoromethyl)pyridin-2-yl)isothiazolidine-3-carboxamide 1,1-dioxide] was tested. Which IC50 did it give?
Answer: 1100 to 5000 nM
